# Like-named read-outs stand apart in the source and are kept apart here.
# How the values were obtained:
# [1] = test system: panel of 60 human cancer cell lines; assay: NCI in-vitro cytotoxicity screen, whole panel; format: cell-based
# SW-620 = assay: NCI screen, SW-620 (Colon Cancer); format: cell-based, human
# Experimental: (§1) The compounds of this invention were also tested against the panel of 60 human cancer cell lines at the National Cancer Institute, Bethesda, Md. […] The cytrotoxicity studies were conducted using a 48 hour exposure, and measuring the optical density of sulforhodamide B-derived color.
# ACHN = format: cell-based, human
# MCF7/ADR-RES = assay: NCI screen, MCF7/ADR-RES (Breast Cancer); format: cell-based, human; conditions: NCI/ADR-RES, 48 hour exposure
# Experimental: as §1
# M14 = assay: NCI screen, M14 (Melanoma); conditions: M14, 48 hour exposure
# Experimental: as §1
# K-562 = assay: NCI screen, K-562 (Leukemia)
# Experimental: as §1
# MOLT-4 = assay: NCI screen, MOLT-4 (Leukemia)
# Experimental: as §1
# HT29 = assay: NCI screen, HT29 (Colon Cancer)
# Experimental: as §1
# SNB-75 = assay: NCI screen, SNB-75 (CNS Cancer); conditions: SNB-75, 48 hour exposure
# Experimental: as §1
# LOX IMVI = assay: NCI screen, LOX IMVI (Melanoma); conditions: LOX IMVI, 48 hour exposure
# Experimental: (§2) The compounds of this invention were also tested against the panel of 60 human cancer cell lines at the National Cancer Institute, Bethesda, Md. (44). The cytrotoxicity studies were conducted using a 48 hour exposure, and measuring the optical density of sulforhodamide B-derived color.
# CAKI-1 = assay: NCI screen, CAKI-1 (Renal Cancer); conditions: CAKI-1, 48 hour exposure
# Experimental: as §1
# RXF 393 = assay: NCI screen, RXF 393 (Renal Cancer)
# Experimental: as §1
# BT-549 = assay: NCI screen, BT-549 (Breast Cancer); conditions: BT-549, 48 hour exposure
# Experimental: as §2
# HCC-2998 = assay: NCI screen, HCC-2998 (Colon Cancer)
# Experimental: as §1
# PC-3 = assay: NCI screen, PC-3 (Prostrate Cancer)
# Experimental: as §1
# HS 578T = assay: NCI screen, HS 578T (Breast Cancer); conditions: HS 578T, 48 hour exposure
# Experimental: as §2
# OVCAR-8 = assay: NCI screen, OVCAR-8 (Ovarian Cancer); conditions: OVCAR-8, 48 hour exposure
# Experimental: as §2
# SK-OV-3 = assay: NCI screen, SK-OV-3 (Ovarian Cancer)
# Experimental: as §1
# NCI-H23 = assay: NCI screen, NCI-H23 (Non-Small Cell Lung Cancer)
# Experimental: as §1
# NCI-H522 = assay: NCI screen, NCI-H522 (Non-Small Cell Lung Cancer)
# Experimental: as §1
# [2] = Log10 Concentration −4.3, 48 hour exposure
# [3] = Log10 Concentration −5.3, 48 hour exposure
# [4] = Log10 Concentration −6.3, 48 hour exposure
# [5] = Log10 Concentration −7.3, 48 hour exposure
# [6] = Log10 Concentration −8.3, 48 hour exposure
smiles,measurement,setting,value
"COC(=O)c1[nH]c2c(O)cc(NC(=O)c3cc4cc(OC)c(OC)c(OC)c4[nH]3)c(CCCl)c2c1C(=O)OC [Compound 22, Dimethyl 4-(2-chloroethyl)-7-hydroxy-5-(5,6,7-trimethoxyindole-2-carboxamido)indole-2,3-dicarboxylate]",range of activity,[1]; 48 hour exposure,micromolar range
same,activity against leukemia cells,[1]; leukemia cells,none of these compounds showed much activity
same,activity against melanoma cells,[1]; melanoma cells,active
same,activity against solid tumors cells,[1]; solid tumors cells,strong activity
same,TGI,SW-620; 48 hour exposure,1.90E−05 Molar
same,Percent Growth,SW-620; [2],−11%
same,Percent Growth,SW-620; [3],16%
same,Percent Growth,SW-620; [4],9%
same,Percent Growth,SW-620; [5],71%
same,Percent Growth,SW-620; [6],86%
same,TGI,ACHN,5.95E−06 Molar
same,TGI,MCF7/ADR-RES,8.17E−07 Molar
same,Percent Growth,MCF7/ADR-RES; Log10 Concentration −4.3,−41%
same,Percent Growth,MCF7/ADR-RES; Log10 Concentration −5.3,−58%
same,Percent Growth,MCF7/ADR-RES; Log10 Concentration −6.3,16%
same,Percent Growth,MCF7/ADR-RES; Log10 Concentration −7.3,77%
same,Percent Growth,MCF7/ADR-RES; Log10 Concentration −8.3,97%
same,Percent Growth,A549/ATCC; [2],5%
same,Percent Growth,A549/ATCC; [3],12%
same,Percent Growth,A549/ATCC; [4],−6%
same,Percent Growth,A549/ATCC; [5],93%
same,Percent Growth,A549/ATCC; [6],108%
same,TGI,KM12,2.03E−07 Molar
same,TGI,M14,1.68E−07 Molar
same,Percent Growth,M14; Log10 Concentration −4.3,−92%
same,Percent Growth,M14; Log10 Concentration −5.3,−90%
same,Percent Growth,M14; Log10 Concentration −6.3,−69%
same,Percent Growth,M14; Log10 Concentration −7.3,77%
same,Percent Growth,M14; Log10 Concentration −8.3,105%
same,TGI,K-562; 48 hour exposure,>5.00E−05 Molar
same,Percent Growth,K-562; [2],36%
same,Percent Growth,K-562; [3],34%
same,Percent Growth,K-562; [4],43%
same,Percent Growth,K-562; [5],77%
same,Percent Growth,K-562; [6],94%
same,TGI,MOLT-4; 48 hour exposure,>5.00E−05 Molar
same,Percent Growth,MOLT-4; [2],22%
same,Percent Growth,MOLT-4; [3],20%
same,Percent Growth,MOLT-4; [4],21%
same,Percent Growth,MOLT-4; [5],28%
same,Percent Growth,MOLT-4; [6],61%
same,TGI,HT29; 48 hour exposure,2.28E−07 Molar
same,Percent Growth,HT29; [2],−55%
same,Percent Growth,HT29; [3],−59%
same,Percent Growth,HT29; [4],−32%
same,Percent Growth,HT29; [5],63%
same,Percent Growth,HT29; [6],84%
same,TGI,SNB-75,1.90E−07 Molar
same,Percent Growth,SNB-75; Log10 Concentration −4.3,−51%
same,Percent Growth,SNB-75; Log10 Concentration −5.3,−84%
same,Percent Growth,SNB-75; Log10 Concentration −6.3,−44%
same,Percent Growth,SNB-75; Log10 Concentration −7.3,60%
same,Percent Growth,SNB-75; Log10 Concentration −8.3,77%
same,TGI,LOX IMVI,3.84E−07 Molar
same,Percent Growth,LOX IMVI; Log10 Concentration −4.3,−61%
same,Percent Growth,LOX IMVI; Log10 Concentration −5.3,−23%
same,Percent Growth,LOX IMVI; Log10 Concentration −6.3,−9%
same,Percent Growth,LOX IMVI; Log10 Concentration −7.3,66%
same,Percent Growth,LOX IMVI; Log10 Concentration −8.3,81%
same,TGI,CAKI-1,8.01E−06 Molar
same,Percent Growth,CAKI-1; Log10 Concentration −4.3,−40%
same,Percent Growth,CAKI-1; Log10 Concentration −5.3,10%
same,Percent Growth,CAKI-1; Log10 Concentration −6.3,12%
same,Percent Growth,CAKI-1; Log10 Concentration −7.3,83%
same,Percent Growth,CAKI-1; Log10 Concentration −8.3,97%
same,TGI,RXF 393; 48 hour exposure,1.31E−06 Molar
same,Percent Growth,RXF 393; [2],−65%
same,Percent Growth,RXF 393; [3],−25%
same,Percent Growth,RXF 393; [4],18%
same,Percent Growth,RXF 393; [5],57%
same,Percent Growth,RXF 393; [6],94%
same,TGI,BT-549,1.23E−05 Molar
same,Percent Growth,BT-549; Log10 Concentration −4.3,−39%
same,Percent Growth,BT-549; Log10 Concentration −5.3,25%
same,Percent Growth,BT-549; Log10 Concentration −6.3,42%
same,Percent Growth,BT-549; Log10 Concentration −7.3,85%
same,Percent Growth,BT-549; Log10 Concentration −8.3,91%
same,TGI,HCC-2998; 48 hour exposure,2.89E−07 Molar
same,Percent Growth,HCC-2998; [2],−88%
same,Percent Growth,HCC-2998; [3],−31%
same,Percent Growth,HCC-2998; [4],−27%
same,Percent Growth,HCC-2998; [5],85%
same,Percent Growth,HCC-2998; [6],91%
same,TGI,PC-3; 48 hour exposure,6.40E−07 Molar
same,Percent Growth,PC-3; [2],−88%
same,Percent Growth,PC-3; [3],−32%
same,Percent Growth,PC-3; [4],4%
same,Percent Growth,PC-3; [5],55%
same,Percent Growth,PC-3; [6],81%
same,TGI,HS 578T,2.80E−07 Molar
same,Percent Growth,HS 578T; Log10 Concentration −4.3,−54%
same,Percent Growth,HS 578T; Log10 Concentration −5.3,−73%
same,Percent Growth,HS 578T; Log10 Concentration −6.3,−41%
same,Percent Growth,HS 578T; Log10 Concentration −7.3,122%
same,Percent Growth,HS 578T; Log10 Concentration −8.3,130%
same,TGI,OVCAR-8,2.33E−07 Molar
same,Percent Growth,OVCAR-8; Log10 Concentration −4.3,−64%
same,Percent Growth,OVCAR-8; Log10 Concentration −5.3,−65%
same,Percent Growth,OVCAR-8; Log10 Concentration −6.3,−32%
same,Percent Growth,OVCAR-8; Log10 Concentration −7.3,65%
same,Percent Growth,OVCAR-8; Log10 Concentration −8.3,86%
same,TGI,SK-OV-3; 48 hour exposure,8.81E−06 Molar
same,Percent Growth,SK-OV-3; [2],−54%
same,Percent Growth,SK-OV-3; [3],17%
same,Percent Growth,SK-OV-3; [4],35%
same,Percent Growth,SK-OV-3; [5],90%
same,Percent Growth,SK-OV-3; [6],103%
same,TGI,NCI-H23; 48 hour exposure,5.63E−06 Molar
same,Percent Growth,NCI-H23; [2],−25%
same,Percent Growth,NCI-H23; [3],1%
same,Percent Growth,NCI-H23; [4],9%
same,Percent Growth,NCI-H23; [5],56%
same,Percent Growth,NCI-H23; [6],83%
same,TGI,NCI-H522; 48 hour exposure,1.47E−07 Molar
same,Percent Growth,NCI-H522; [2],−96%
same,Percent Growth,NCI-H522; [3],−86%
same,Percent Growth,NCI-H522; [4],−66%
same,Percent Growth,NCI-H522; [5],58%
same,Percent Growth,NCI-H522; [6],74%
